# Patent US20230338378A1, “Methods of Administering Myosin Inhibitors” (MYOKARDIA, INC., priority 2022, published 2023)
# Legend:
# HCM patients = test: Meta-analysis of QTc across clinical studies in HCM patients; format: in vivo, human; conditions: therapeutic exposure range
# Description: The effect of coadministration of MAVACAMTEN with QT-prolonging drugs or in patients with potassium channel variants resulting in a long QT interval have not been characterized.
# [1] = test system: adults with symptomatic NYHA class II and III obstructive HCM; conditions: phase 3 EXPLORER-HCM, oHCM patient population (Olivotto et al., 2020); cited from earlier work
# [2] = test system: bacterial reverse mutation; test: Bacterial reverse mutation test (Ames test); format: cell-based
# CYP2C9 = CYP2C9 (Homo sapiens, UniProt P11712); test: In vitro CYP inhibition; format: in vitro ADME; conditions: In Vitro Studies; clinically relevant concentrations
# CYP3A4 [3] = molecular target: T1, CYP3A4 (Homo sapiens, UniProt P08684); test: Concomitant use with moderate CYP3A4 inhibitor verapamil; format: in vivo; design: Mavacamten is hepatically metabolized predominantly via CYP2C19 (74%), CYP3A4 (18%) and CYP2C9 (8%); from tissue; host or cells: liver of human subjects in vivo, or a Simcyp virtual population; conditions: mavacamten 25 mg with verapamil sustained release 240 mg; CYP2C19 IMs and NMs
# P-gp = P-gp (Homo sapiens, UniProt P08183); test: In vitro transporter inhibition; format: in vitro ADME; conditions: In Vitro Studies
# CYP3A4 [4] = molecular target: T1, CYP3A4; test: Metabolism through CYP enzymes
# MATE1 = MATE1 (Homo sapiens, UniProt Q96FL8); test: In vitro transporter inhibition; format: in vitro ADME; conditions: In Vitro Studies
# [5] = test system: organic anion transporters (OATs); test: In vitro transporter inhibition; format: in vitro ADME; conditions: In Vitro Studies
# Solubility = format: physicochemical
# CYP2D6 = CYP2D6 (Homo sapiens, UniProt P10635); test: In vitro CYP inhibition; format: in vitro ADME; conditions: In Vitro Studies; clinically relevant concentrations
# [6] = Human experience of overdose; format: in vivo
# Protocol: Human experience of overdose with MAVACAMTEN is limited. MAVACAMTEN has been given as a single dose of up to 144 mg in patients with HCM. […] In healthy subjects, doses of up to 25 mg have been administered for up to 25 days, with 3 of 8 participants treated at the 25 mg dose level experiencing 20% or greater reductions in LVEF. An infant death was reported after accidental ingestion of three 15 mg capsules.
# pregnant rats = test: Embryo-fetal development study in pregnant rats; format: in vivo, rat
# Description: Plasma exposure (based on area under the concentration-time curve or AUC) at the no-effect dose for embryo-fetal development in rats is 0.3 times the exposure in humans at the MRHD.
# [7] = test system: organic anion transporting polypeptides (OATPs); test: In vitro transporter inhibition; format: in vitro ADME; conditions: In Vitro Studies
# CYP2B6 = CYP2B6 (Homo sapiens, UniProt P20813); test: In vitro CYP inhibition; format: in vitro ADME; conditions: In Vitro Studies
# male or female rats = test: Reproductive toxicity studies (mating and fertility); format: in vivo, rat
# dogs = test: Oral animal toxicology at multiple dose levels; format: in vivo
# Protocol: (§1) The safety of mavacamten has been evaluated in rats and dogs at multiple dose levels (0.06 to 10 mg/kg/day) orally. […] Plasma exposures (AUC) at the NOAEL in rats and dogs were 0.1 and 0.3 times, respectively, human exposure (AUC) at the MRHD.
# rats = test: Oral animal toxicology at multiple dose levels; format: in vivo
# Protocol: as §1
# MATE2-K = MATE2-K (Homo sapiens, UniProt Q86VL8); test: In vitro transporter inhibition; format: in vitro ADME; conditions: In Vitro Studies
# Chain of MATE2-K (Q86VL8 1-566 isoform Q86VL8-3): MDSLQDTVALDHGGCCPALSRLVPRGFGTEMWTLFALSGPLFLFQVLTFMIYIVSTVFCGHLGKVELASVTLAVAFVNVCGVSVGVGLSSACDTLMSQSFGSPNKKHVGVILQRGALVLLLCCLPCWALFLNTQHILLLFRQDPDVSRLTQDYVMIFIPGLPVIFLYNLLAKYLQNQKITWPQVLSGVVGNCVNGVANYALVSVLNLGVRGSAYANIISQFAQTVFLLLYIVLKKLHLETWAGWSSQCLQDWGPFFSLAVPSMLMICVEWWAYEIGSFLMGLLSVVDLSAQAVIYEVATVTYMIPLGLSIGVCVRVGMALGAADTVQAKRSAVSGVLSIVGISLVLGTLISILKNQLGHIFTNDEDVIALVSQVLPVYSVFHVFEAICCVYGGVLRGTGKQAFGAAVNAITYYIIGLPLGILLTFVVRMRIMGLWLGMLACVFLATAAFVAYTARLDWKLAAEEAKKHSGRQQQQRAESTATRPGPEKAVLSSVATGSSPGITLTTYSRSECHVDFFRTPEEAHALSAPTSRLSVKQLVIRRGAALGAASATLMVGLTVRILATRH
# T1 sequence (P08684 whole entry): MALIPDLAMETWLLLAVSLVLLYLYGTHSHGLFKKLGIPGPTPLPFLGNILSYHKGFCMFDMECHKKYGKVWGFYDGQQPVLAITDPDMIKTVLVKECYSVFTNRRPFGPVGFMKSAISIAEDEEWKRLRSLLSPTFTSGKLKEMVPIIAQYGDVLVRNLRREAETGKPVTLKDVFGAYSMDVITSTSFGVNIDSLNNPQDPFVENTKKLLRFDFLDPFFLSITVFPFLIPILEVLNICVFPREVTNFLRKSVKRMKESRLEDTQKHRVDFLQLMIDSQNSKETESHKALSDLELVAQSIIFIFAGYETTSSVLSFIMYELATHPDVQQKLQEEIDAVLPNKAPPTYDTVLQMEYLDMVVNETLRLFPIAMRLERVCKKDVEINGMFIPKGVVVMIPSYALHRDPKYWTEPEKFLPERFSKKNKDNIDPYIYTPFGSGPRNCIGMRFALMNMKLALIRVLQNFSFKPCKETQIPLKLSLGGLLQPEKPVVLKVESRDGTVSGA
# Chain of CYP2B6 (P20813 whole entry): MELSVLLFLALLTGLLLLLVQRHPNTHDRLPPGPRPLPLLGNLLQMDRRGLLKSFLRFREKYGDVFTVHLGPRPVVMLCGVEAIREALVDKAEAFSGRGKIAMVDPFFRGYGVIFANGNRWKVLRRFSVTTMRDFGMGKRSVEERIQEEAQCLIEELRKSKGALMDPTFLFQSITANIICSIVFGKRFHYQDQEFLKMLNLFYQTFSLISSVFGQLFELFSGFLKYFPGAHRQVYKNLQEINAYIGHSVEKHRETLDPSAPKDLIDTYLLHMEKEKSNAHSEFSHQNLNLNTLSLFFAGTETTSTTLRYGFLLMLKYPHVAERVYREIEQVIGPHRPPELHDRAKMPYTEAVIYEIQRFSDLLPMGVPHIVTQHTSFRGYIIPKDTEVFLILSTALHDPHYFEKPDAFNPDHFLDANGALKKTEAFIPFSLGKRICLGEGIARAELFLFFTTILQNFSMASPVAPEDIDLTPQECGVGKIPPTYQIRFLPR
# Chain of MATE1 (Q96FL8 whole entry): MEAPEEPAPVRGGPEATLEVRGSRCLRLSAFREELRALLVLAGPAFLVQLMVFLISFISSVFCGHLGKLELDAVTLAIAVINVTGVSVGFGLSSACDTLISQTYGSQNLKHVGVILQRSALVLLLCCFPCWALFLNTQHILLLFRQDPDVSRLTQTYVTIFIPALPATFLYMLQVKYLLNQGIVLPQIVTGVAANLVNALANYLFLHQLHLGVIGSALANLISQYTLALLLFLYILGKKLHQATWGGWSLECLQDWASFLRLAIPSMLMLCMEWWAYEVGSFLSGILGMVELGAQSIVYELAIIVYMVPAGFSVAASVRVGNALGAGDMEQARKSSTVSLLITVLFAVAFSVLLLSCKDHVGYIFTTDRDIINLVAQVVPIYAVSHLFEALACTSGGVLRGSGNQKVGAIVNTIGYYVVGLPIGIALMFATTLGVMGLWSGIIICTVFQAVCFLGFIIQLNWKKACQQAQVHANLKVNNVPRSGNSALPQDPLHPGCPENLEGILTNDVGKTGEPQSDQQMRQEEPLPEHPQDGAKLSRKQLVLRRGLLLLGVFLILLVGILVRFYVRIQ
# Chain of CYP2D6 (P10635 whole entry): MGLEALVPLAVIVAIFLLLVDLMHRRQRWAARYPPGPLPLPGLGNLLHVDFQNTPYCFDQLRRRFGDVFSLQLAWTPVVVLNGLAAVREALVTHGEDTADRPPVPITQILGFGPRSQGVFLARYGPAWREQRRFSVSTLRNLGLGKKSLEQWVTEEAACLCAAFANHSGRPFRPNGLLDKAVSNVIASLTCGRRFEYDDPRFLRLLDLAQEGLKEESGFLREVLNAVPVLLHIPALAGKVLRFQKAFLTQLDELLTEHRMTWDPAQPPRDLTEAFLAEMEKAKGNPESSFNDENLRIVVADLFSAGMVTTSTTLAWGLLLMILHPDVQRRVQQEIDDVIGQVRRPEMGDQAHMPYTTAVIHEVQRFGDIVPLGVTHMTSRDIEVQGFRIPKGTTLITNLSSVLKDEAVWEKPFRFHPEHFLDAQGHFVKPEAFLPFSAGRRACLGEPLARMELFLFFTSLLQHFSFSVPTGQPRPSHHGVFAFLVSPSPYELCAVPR
# Chain of P-gp (P08183 whole entry): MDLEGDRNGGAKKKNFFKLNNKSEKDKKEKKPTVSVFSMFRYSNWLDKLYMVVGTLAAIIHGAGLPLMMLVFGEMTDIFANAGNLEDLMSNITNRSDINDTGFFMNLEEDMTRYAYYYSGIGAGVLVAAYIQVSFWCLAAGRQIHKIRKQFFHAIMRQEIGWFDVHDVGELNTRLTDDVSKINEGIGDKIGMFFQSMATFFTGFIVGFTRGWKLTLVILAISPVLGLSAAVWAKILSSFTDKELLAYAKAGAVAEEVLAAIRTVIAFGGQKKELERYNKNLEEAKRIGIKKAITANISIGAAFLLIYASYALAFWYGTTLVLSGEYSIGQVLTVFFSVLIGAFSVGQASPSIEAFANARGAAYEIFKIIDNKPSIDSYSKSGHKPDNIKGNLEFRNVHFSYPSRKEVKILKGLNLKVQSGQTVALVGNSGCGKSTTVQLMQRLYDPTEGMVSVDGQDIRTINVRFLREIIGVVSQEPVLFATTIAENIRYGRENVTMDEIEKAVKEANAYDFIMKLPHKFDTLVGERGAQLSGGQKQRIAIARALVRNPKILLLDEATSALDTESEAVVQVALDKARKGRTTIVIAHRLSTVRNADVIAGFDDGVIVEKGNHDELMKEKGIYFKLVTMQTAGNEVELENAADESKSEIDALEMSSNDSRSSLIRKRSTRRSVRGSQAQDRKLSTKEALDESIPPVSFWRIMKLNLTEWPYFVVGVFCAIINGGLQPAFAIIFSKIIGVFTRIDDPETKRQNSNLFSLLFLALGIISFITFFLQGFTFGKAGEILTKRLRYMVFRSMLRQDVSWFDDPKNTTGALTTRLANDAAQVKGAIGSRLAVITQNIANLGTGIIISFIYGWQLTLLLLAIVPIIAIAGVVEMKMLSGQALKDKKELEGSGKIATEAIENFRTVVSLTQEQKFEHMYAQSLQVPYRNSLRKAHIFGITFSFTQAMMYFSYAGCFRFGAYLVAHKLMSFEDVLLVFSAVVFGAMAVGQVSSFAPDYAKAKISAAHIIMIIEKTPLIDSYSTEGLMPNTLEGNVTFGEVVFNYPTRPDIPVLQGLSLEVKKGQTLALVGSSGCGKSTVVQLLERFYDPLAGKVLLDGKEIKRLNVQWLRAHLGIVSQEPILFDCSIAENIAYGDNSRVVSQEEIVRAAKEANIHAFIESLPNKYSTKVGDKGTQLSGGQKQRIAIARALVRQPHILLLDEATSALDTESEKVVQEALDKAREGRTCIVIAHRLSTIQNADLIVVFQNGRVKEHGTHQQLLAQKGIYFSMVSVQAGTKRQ
# Chain of CYP2C9 (P11712 whole entry): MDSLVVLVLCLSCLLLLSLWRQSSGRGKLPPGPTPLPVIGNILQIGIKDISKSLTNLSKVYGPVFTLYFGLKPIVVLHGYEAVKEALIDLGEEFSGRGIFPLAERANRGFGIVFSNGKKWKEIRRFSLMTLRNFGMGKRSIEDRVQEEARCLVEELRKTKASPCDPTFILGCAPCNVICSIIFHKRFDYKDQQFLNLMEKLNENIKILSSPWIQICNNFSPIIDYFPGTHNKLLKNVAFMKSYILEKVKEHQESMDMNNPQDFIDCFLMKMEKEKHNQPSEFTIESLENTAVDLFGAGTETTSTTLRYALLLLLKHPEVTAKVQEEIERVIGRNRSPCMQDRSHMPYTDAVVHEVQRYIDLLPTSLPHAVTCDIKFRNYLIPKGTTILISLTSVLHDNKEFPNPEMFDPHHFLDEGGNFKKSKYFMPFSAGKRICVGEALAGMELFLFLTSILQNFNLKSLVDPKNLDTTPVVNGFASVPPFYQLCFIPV
smiles,measurement,setting,value
"CC(C)n1c(=O)cc(N[C@@H](C)c2ccccc2)[nH]c1=O [mavacamten, (S)-3-Isopropyl-6-((1-phenylethyl)amino)pyrimidine-2,4(1H,3H)-dione]",QTc interval,HCM patients,does not suggest clinically relevant increases in the QTc interval
same,"LVOT gradients, symptoms, exercise performance and health status",[1],"effective in reducing LVOT gradients and improving symptoms, exercise performance and health status"
same,genotoxicity,[2],not genotoxic
same,inhibition of CYP2C9,CYP2C9,not an inhibitor
same,mavacamten AUCinf increase,CYP3A4 [3],15%
same,mavacamten Cmax increase,CYP3A4 [3],52%
same,inhibition of P-gp,P-gp,does not inhibit
same,metabolized through CYP3A4,CYP3A4 [4],18%
same,inhibition of MATE1,MATE1,does not inhibit
same,inhibition of OATs,[5],does not inhibit
same,solubility,Solubility; DMSO and NMP,freely soluble
same,solubility,Solubility; methanol and ethanol,sparingly soluble
same,solubility,Solubility; water and aqueous buffers at pH 2-10,practically insoluble
same,inhibition of CYP2D6,CYP2D6,not an inhibitor
same,events after overdose,"[6]; one subject, single dose of 144 mg, subject recovered","serious adverse events including vasovagal reaction, hypotension, and asystole"
same,outcome after accidental ingestion,[6]; three 15 mg capsules,infant death
same,embryo-fetal findings,"pregnant rats; pregnant rats, oral, period of organogenesis, high dose group (1.5 mg/kg/day)","increases in post-implantation loss, decreases in mean fetal body weight, reductions in fetal ossification of bones, and fetal malformations (visceral and skeletal) were observed"
same,Plasma exposure (AUC) at the no-effect dose for embryo-fetal development vs exposure in humans at the MRHD,pregnant rats; rats,0.3 times
same,inhibition of OATPs,[7],does not inhibit
same,inhibition of CYP2B6,CYP2B6,does not inhibit
same,effects on the viability and fertility of offspring,male or female rats; dams dosed up to 1.5 mg/kg/day,no evidence of effects
same,effects on mating and fertility,"male or female rats; male or female rats, doses up to 1.2 mg/kg/day",no evidence of effects
same,Plasma exposure (AUC) at the highest dose tested,male or female rats; rats,the same as in humans at the MRHD
same,Other findings,dogs,QTc prolongation
same,Plasma exposure (AUC) at the NOAEL vs human exposure (AUC) at the MRHD,dogs,0.3 times
same,Noted toxicities,dogs; 0.06 to 10 mg/kg/day orally,"echocardiographic findings, reduction in systolic function, cardiac dilation, and death"
same,Other findings,rats,cardiac osseous metaplasia
same,Plasma exposure (AUC) at the NOAEL vs human exposure (AUC) at the MRHD,rats,0.1 times
same,heart weights,rats,increased heart weights
same,Noted toxicities,rats; 0.06 to 10 mg/kg/day orally,"echocardiographic findings, reduction in systolic function, cardiac dilation, and death"
same,inhibition of MATE2-K,MATE2-K,does not inhibit
